Each structure is given as a SMILES string. “And” between values parts separate entries of the source, which are not always exact repeats. Equal values may be shown once. Toxic doses and inconclusive results are not listed. Starred links: 1 amine or outer side, 2 acyl side, 3 side chain; linkers in the order of their positions; H or OH if unused. Positions of bridges follow the written chain, without caps; N, C: chain ends. Non-standard residues stand in square brackets, D forms with d. Residues, ends and D or L forms follow the SMILES beside them. Chains are numbered I, II in the order given. Actinocin(9to1) = Cc1c2oc3c(C)ccc(C(=O)[*:1])c3nc-2c(C(=O)[*:2])c(N)c1=O; aThr = C[C@H](O)[C@H](N)C(=O)O; NMeV = CN[C@H](C(=O)O)C(C)C; Sar = CNCC(=O)O

The results in this text go back to PubChem BioAssay AID258 (DTP/NCI, 2004).

The experiment has as its system CD2F1 mice, L1210 leukemia sc, survival T/C. Nature of the experiment: NCI In Vivo Anticancer Drug Screen. Data for tumor model L1210 Leukemia (subcutaneous) in CD2F1 (CDF1) mice. The following applies: endpoint: median survival time, higher = longer survival. Summed up: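 Transplantable tumor-bearing mice were treated with compound; survival or tumor size measured and expressed as treated-group value (T) divided by vehicle-treated control value (C).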

The mark [1] stands for this setting: dose: 0.25 mg/kg/injection, schedule: Q01DX009 (sc), vehicle: saline.

Turning to `Cc1c2oc3c(C)ccc(C(=O)N[C@@H]4C(=O)N[C@H](C(C)C)C(=O)N5CCC[C@H]5C(=O)N(C)CC(=O)N(C)[C@@H](C(C)C)C(=O)O[C@H]4C)c3nc-2c(C(=O)N[C@@H]2C(=O)N[C@H](C(C)C)C(=O)N3CCC[C@H]3C(=O)N(C)CC(=O)N(C)[C@@H](C(C)C)C(=O)O[C@H]2C)c(N)c1=O` (I: [aThr][dV]P[Sar][NMeV] / II: [aThr][dV]P[Sar][NMeV]; ester I:1-I:C, II:1-II:C; linker I:N-II:N via Actinocin(9to1)), the T/C by setting is: (dose: 0.05 mg/kg/injection, schedule: Q01DX009 (sc), vehicle: saline) 101 % of control; (dose: 0.05 mg/kg/injection, schedule: Q01DX Z (sc), vehicle: other) 108 % of control and 100 % of control; (dose: 0.05 mg/kg/injection, schedule: Q01DX Z (sc), vehicle: saline) 100 % of control; (dose: 0.08 mg/kg/injection, schedule: Q01DX Z (sc), vehicle: other) 112 % of control; (dose: 0.08 mg/kg/injection, schedule: Q07DX Z (sc), vehicle: other) 100 % of control; (dose: 0.09 mg/kg/injection, schedule: Q01DX Z (sc), vehicle: other) 116 % of control. Moreover, the T/C by setting is: (dose: 0.1 mg/kg/injection, schedule: Q01DX009 (sc), vehicle: saline) 113 % of control; (dose: 0.13 mg/kg/injection, schedule: Q01DX009 (sc), vehicle: saline) 122 % of control; (dose: 0.14 mg/kg/injection, schedule: Q07DX Z (sc), vehicle: other) 112 % of control; (dose: 0.15 mg/kg/injection, schedule: Q01DX009 (sc), vehicle: saline) 120 % of control; (dose: 0.2 mg/kg/injection, schedule: Q01DX009 (sc), vehicle: saline) 105 % of control and 113 % of control; (dose: 0.23 mg/kg/injection, schedule: Q07DX Z (sc), vehicle: other) 112 % of control. Moreover, the T/C was 93 % of control under setting [1]; 95 % of control (dose: 0.3 mg/kg/injection, schedule: Q01DX009 (sc), vehicle: saline); 112 % of control (dose: 0.39 mg/kg/injection, schedule: Q07DX Z (sc), vehicle: other); 116 % of control (dose: 0.42 mg/kg/injection, schedule: Q01DX Z (sc), vehicle: other); 112 % of control (dose: 0.7 mg/kg/injection, schedule: Q01DX Z (sc), vehicle: other); 100 % of control (dose: 1.17 mg/kg/injection, schedule: Q01DX Z (sc), vehicle: other). The T/C is 101 % of control (dose: 12.0 micrograms/kg/injection, schedule: Q01DX009 (ip), vehicle: saline); 101 % of control (dose: 12.0 micrograms/kg/injection, schedule: Q01DX009 (sc), vehicle: saline); 102 % of control (dose: 25.0 micrograms/kg/injection, schedule: Q01DX009 (ip), vehicle: saline); 100 % of control (dose: 25.0 micrograms/kg/injection, schedule: Q01DX009 (sc), vehicle: saline); 98 % of control (dose: 50.0 micrograms/kg/injection, schedule: Q01DX009 (ip), vehicle: saline); 101 % of control (dose: 50.0 micrograms/kg/injection, schedule: Q01DX009 (sc), vehicle: saline). For the same compound, the T/C was 113 % of control (dose: 100.0 micrograms/kg/injection, schedule: Q01DX009 (ip), vehicle: saline); 103 % of control and 119 % of control (dose: 100.0 micrograms/kg/injection, schedule: Q01DX009 (sc), vehicle: saline); 107 % of control (dose: 200.0 micrograms/kg/injection, schedule: Q01DX009 (ip), vehicle: saline); 114 % of control and 118 % of control (dose: 200.0 micrograms/kg/injection, schedule: Q01DX009 (sc), vehicle: saline); 112 % of control and 86 % of control (dose: 400.0 micrograms/kg/injection, schedule: Q01DX009 (sc), vehicle: saline).

Take `COc1cccc2c1C(=O)c1c(O)c3c(c(O)c1C2=O)C[C@@](O)(C(C)=O)C[C@@H]3OC1CC(N)C(O)C(C)O1` (stereo partly drawn): the T/C reads like this: (dose: 0.25 mg/kg/injection, schedule: Q01DX009 (ip), vehicle: saline) 97 % of control and 100 % of control; under setting [1], 98 % of control; (dose: 0.5 mg/kg/injection, schedule: Q01DX009 (ip), vehicle: saline) 96 % of control and 98 % of control; (dose: 0.5 mg/kg/injection, schedule: Q01DX009 (sc), vehicle: saline) 104 % of control; (dose: 1.0 mg/kg/injection, schedule: Q01DX009 (ip), vehicle: saline) 101 % of control and 96 % of control (2×); (dose: 1.0 mg/kg/injection, schedule: Q01DX009 (sc), vehicle: saline) 107 % of control. Moreover, the T/C is 100 % of control (dose: 1.5 mg/kg/injection, schedule: Q01DX009 (ip), vehicle: saline); 101 % of control and 102 % of control and 98 % of control (dose: 2.0 mg/kg/injection, schedule: Q01DX009 (ip), vehicle: saline); 109 % of control (dose: 2.0 mg/kg/injection, schedule: Q01DX009 (sc), vehicle: saline); 97 % of control (dose: 3.0 mg/kg/injection, schedule: Q01DX009 (ip), vehicle: saline); 98 % of control (dose: 4.0 mg/kg/injection, schedule: Q01DX009 (ip), vehicle: saline); 120 % of control (dose: 4.0 mg/kg/injection, schedule: Q01DX009 (sc), vehicle: saline). Besides, the T/C runs as follows: (dose: 16.0 mg/kg/injection, schedule: Q01DX009 (sc), vehicle: saline) 118 % of control; (dose: 23.0 mg/kg/injection, schedule: Q01DX Z (sc), vehicle: water) 120 % of control.

`C[C@]12C=CC(=O)C=C1CC[C@@H]1[C@@H]2C(=O)C[C@@]2(C)[C@H]1CC[C@]2(O)C(=O)CO`: the T/C (dose: 180.0 mg/kg/injection, schedule: Q01DX Z (sc), vehicle: water) was 122 % of control; the T/C (dose: 180.0 mg/kg/injection, schedule: Q02DX Z (sc), vehicle: water) is 154 % of control; the T/C (dose: 500.0 mg/kg/injection, schedule: Q#A X Z (sc), vehicle: water) was 122 % of control.

As to `C[C@]12CC[C@H](OC3OC(CO)C(O)C(O)C3O)C[C@H]1CC[C@@H]1[C@@H]2CC[C@]2(C)[C@@H](C3=CCOC3=O)CC[C@]12O` (stereo partly drawn), the T/C runs as follows: (dose: 3.0 mg/kg/injection, schedule: Q01DX Z (sc), vehicle: saline) 110 % of control; (dose: 5.0 mg/kg/injection, schedule: Q01DX Z (sc), vehicle: saline) 110 % of control; (dose: 8.4 mg/kg/injection, schedule: Q01DX Z (sc), vehicle: saline) 110 % of control.

Regarding `N#Cc1c(-c2ccc(F)cc2)c(-c2ccc(F)cc2)nn(CCO)c1=O`, the T/C was 109 % of control (dose: 108.0 mg/kg/injection, schedule: Q01DX005 (ip), vehicle: distilled water + Tween-80 + alcohol); 113 % of control (dose: 180.0 mg/kg/injection, schedule: Q01DX005 (ip), vehicle: distilled water + Tween-80 + alcohol); 113 % of control (dose: 300.0 mg/kg/injection, schedule: Q01DX005 (ip), vehicle: distilled water + Tween-80 + alcohol); 178 % of control (dose: 833.0 mg/kg/injection, schedule: Q01DX005 (ip), vehicle: distilled water + Tween-80 + alcohol).
